Laboratory results: patent US20150368220A1, “PHARMACEUTICAL COMPOSITION FOR TREATING OR PREVENTING STRESS URINARY INCONTINENCE OR MIXED URINARY INCONTINENCE, AND METHOD FOR SCREENING COMPOUND COMPRISED IN SAID PHARMACEUTICAL COMPOSITION” (Astellas Pharma Inc., priority 2012, published 2015)

Experiments:
[1] = system: SD female rat; experiment: Effect on urethral pressure, perfusion method (Example 4); type: in vivo
Description: An SD female rat was anesthetized with urethane and allowed to undergo laparotomy, the bladder dome was then incised, and a catheter having a barb at the tip was inserted toward the urethra from the bladder, and ligated and fixed such that the tip of the catheter was positioned around the proximal urethra. Physiological saline was injected at a predetermined flow rate into the urethra through the catheter and the urethral pressure was measured with a pressure transducer. After the urethral pressure was stabilized, compounds dissolved in physiological saline, or physiological saline containing 5% N,N-dimethylacetamide(DMA) and 0.5% Cremophor were intravenously administered at a dose of 1 μg/kg, 10 μg/kg, 100 μg/kg, or 1000 μg/kg and a change in the urethral pressure was measured.

[2] = system: isolated urethra; experiment: Urethra contracting action using isolated urethra (Example 3); conditions: isolated urethra of SD female rat, cumulative 10^-5 M to 10^-12 M, FIGS. 6 and 7
Description: The urethra was isolated from an SD female rat having a body weight of 100 g to 500 g. The isolated urethra was incised vertically and then made into strip-shaped specimens having a width of about 3 mm. The specimens were suspended in a 10 mL tissue bus filled with a Krebs—Henseleit solution (pH 7.4) in the circular muscle direction. The Krebs—Henseleit solution was aerated at 95% O2 and 5% CO2, and warmed at 37° C. The resting tension was set to 0.5 g and the isometric contraction was recorded. After the resting tension was stabilized, a 10 μM phenylephrine solution was added thereto to cause contraction.

[3] = molecular target: T1, human MT1 receptor (Homo sapiens, UniProt P48039); experiment: Intracellular Ca2+ concentration by FLIPR in human MT1 receptor expressing cells (Example 2); type: cell-based; conditions: human MT1 receptor expressing HEK293 cells, 10^-5 M to 10^-12 M, FIGS. 2 and 4
T1 construct: expressed in transfected cells; vector pCDNA3.1/Zeo; co-transfected with a Gq/i chimeric G protein expression vector
Description: (§1) The expression vectors for human MT1 and MT2 receptors were introduced into HEK293 cells, together with a Gq/i chimeric G protein expression vector, respectively. The incorporation was carried out in accordance with instructions, using a Lipofectoamine (registered trademark) 2000 Reagent (Invitrogen Inc.). Using Zeocin and hygromycin as a resistant agent, the cells were cultured for 15 days in the presence of 0.02 mg/mL and 0.05 mg/mL of the agents, respectively, thereby acquiring a drug-resistant clone.
(§2) The respective stably expressing cells were dispensed into 96 wells in a poly-D-lysine-coated plate (Falcon) the day before the experiment to give 40,000 cells/well, and cultured in a DMEM (Invitrogen Inc.) medium containing 10% FBS at 37° C. and 5% CO2 overnight. The medium was replaced with a loading buffer (a washing solution containing 4 μM Fluo-4AM (Dojindo Co.) (Hank's balanced salt solution (HBSS), 20 mM HEPES-NaOH, 2.5 mM probenecid)) and cultured at 37° C. and 5% CO2 for 1 hour.

[4] = molecular target: T2, human MT2 receptor (Homo sapiens, UniProt P49286); experiment: Intracellular Ca2+ concentration by FLIPR in human MT2 receptor expressing cells (Example 2); type: cell-based; conditions: human MT2 receptor expressing HEK293 cells, 10^-5 M to 10^-12 M, FIGS. 3 and 5
T2 construct: expressed in transfected cells; vector pCDNA3.1/Zeo; co-transfected with a Gq/i chimeric G protein expression vector
T2 sequence (P49286 1-362): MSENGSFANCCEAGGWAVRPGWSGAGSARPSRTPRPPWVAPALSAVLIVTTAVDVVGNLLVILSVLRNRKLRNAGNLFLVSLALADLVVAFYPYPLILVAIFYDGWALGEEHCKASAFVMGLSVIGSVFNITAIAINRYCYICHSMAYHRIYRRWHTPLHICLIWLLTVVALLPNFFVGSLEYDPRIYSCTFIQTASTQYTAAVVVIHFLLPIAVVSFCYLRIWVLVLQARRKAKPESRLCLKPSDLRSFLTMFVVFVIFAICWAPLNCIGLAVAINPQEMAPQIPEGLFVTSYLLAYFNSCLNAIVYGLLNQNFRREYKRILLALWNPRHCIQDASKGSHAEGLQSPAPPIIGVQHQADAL
Description: as §1, §2

[5] = system: isolated urethra; experiment: Effect of luzindole on urethra contracting action of ramelteon in isolated urethra (Example 5); design: species or system rat; conditions: for isolated urethra contracting action: contraction by 1 μM ramelteon at first time = 100%
Description: The urethra was isolated from an SD female rat having a body weight of 100 g to 500 g. The isolated urethra was incised vertically and then made into strip-shaped specimens having a width of about 3 mm. The specimens were suspended in a 10 mL tissue bus filled with a Krebs-Henseleit solution (pH 7.4) in the circular muscle direction or the longitudinal muscle direction. […] The resting tension was set to 0.5 g and the isometric contraction was recorded. After the resting tension was stabilized, a 10 μM phenylephrine solution was added thereto to cause contraction. After washing and stabilizing, the compound (ramelteon) was cumulatively added to a final concentration of 10^−5 M to 10^−12 M and the contraction response was measured. After washing and stabilizing, luzindole was added, after 20 minutes, ramelteon was cumulatively added again, and the contraction response was measured.

[6] = molecular target: T1, human MT1 receptor; experiment: Effect of luzindole on ramelteon-induced intracellular Ca2+ increase in human MT1 receptor expressing cells (Example 5); type: cell-based; conditions: for intracellular Ca^2+ concentration increasing action: action by 10^-6 M ramelteon = 100%
Description: (§3) The respective stably expressing cells were dispensed into 96 wells in a poly-D-lysine-coated plate (Falcon) the day before the experiment to give 40,000 cells/well, and cultured in a DMEM (Invitrogen Inc.) medium containing 10% FBS at 37° C. and 5% CO2 overnight. The medium was replaced with a loading buffer (a washing solution containing 4 μM Fluo-4AM (Dojindo Co.) (Hank's balanced salt solution (HBSS), 20 mM HEPES-NaOH, 2.5 mM probenecid)) and cultured at 37° C. and 5% CO2 for 1 hour. Thereafter, the cells were washed with a plate washer (EL×405, BIO-TEK Instrument Inc.) having a washing solution set therein, and set in an intracellular Ca concentration measuring system (FLIPR (registered trademark), Molecular Device Inc.). Luzindole was preliminarily dissolved in a washing solution, diluted to a final concentration of 10^−5 M to 10^−7 M, and left to stand at room temperature for 5 minutes. Ramelteon was preliminarily dissolved in a washing solution and diluted to a final concentration of 10^−5 M to 10^−11 M, the resultant was set in an FLIPR (registered trademark) device together with the cells after leaving to stand for 5 minutes after the addition of luzindole, the cells were added to the device, and a change in the intracellular Ca^2+ concentration at that time was measured.

[7] = molecular target: T2, human MT2 receptor; experiment: Effect of luzindole on ramelteon-induced intracellular Ca2+ increase in human MT2 receptor expressing cells (Example 5); type: cell-based; conditions: for intracellular Ca^2+ concentration increasing action: action by 10^-6 M ramelteon = 100%
Description: as §3

[8] = system: isolated uterus; experiment: Isolated uterus contraction (Example 6); conditions: isolated uterus of SD female rat, cumulative 10^-5 M to 10^-11 M
Source text: (§4) (1) The bladder and uterus were isolated from an SD female rat having a body weight of 100 g to 500 g. For the isolated bladder, the parts below the parietal region and the triangular portion were resected to make only the body portion into a ring state, and further, one side of the tissue in the ring state was cut to a band-shaped tissue. The bladder in the band shape was isolated parallel to the median axis of the bladder to prepare strip-shaped specimens having a length of about 10 mm and a width of about 3 mm. The specimens were suspended in a 10 mL tissue bus filled with a Krebs-Henseleit solution (pH 7.4) at a resting tension of 0.5 g and the isometric contraction was recorded. For the isolated uterus, the edge portion of the uterus was cut and incised vertically, whereby a strip-shaped specimen having a width of about 6 mm was then prepared. The specimens were suspended in a 10 mL tissue bus filled with a Krebs—Henseleit solution (pH 7.4) at a resting tension of 0.5 g and the isometric contraction was recorded. […] For the bladder specimen, after the resting tension was stabilized, a 60 mM KCl solution or a 10 μM carbachol solution was added thereto to cause contraction. The specimens were washed and stabilized, and then the compounds were cumulatively administered.

[9] = system: SD female rat; experiment: Effect on urethral pressure, microchip method (Example 4); type: in vivo; conditions: intravenous, anesthetized SD female rat, FIGS. 8 and 9
Source text: An SD female rat was anesthetized with urethane and allowed to undergo laparotomy, and then a catheter was mounted in the bladder dome for urine leakage in the bladder. Further, a catheter was mounted in the femoral vein for the administration of a compound and a catheter was mounted in the carotid artery for the measurement of blood pressure described in Example 6 as described later. […] The catheter mounted in the carotid artery was attached to a pressure transducer and the blood pressure was measured.

[10] = system: SD female rat; experiment: Effect on rat blood pressure (Example 6); type: in vivo; conditions: intravenous, at a dose for increasing the urethral pressure, FIGS. 21 and 22
Source text: An SD female rat was anesthetized with urethane and allowed to undergo laparotomy, and then a catheter was mounted in the bladder dome for urine leakage in the bladder. Further, a catheter was mounted in the femoral vein for the administration of a compound and a catheter was mounted in the carotid artery for the measurement of blood pressure described in Example 6 as described later. A microchip transducer catheter (Milar Instruments) was inserted toward the bladder from the external urethral meatus for the measurement of the urethral pressure, and fixed such that the transducer portion was positioned around the portion at which the urethral pressure was maximized (10.0 mm to 15.0 mm from the external urethral meatus). The catheter mounted in the carotid artery was attached to a pressure transducer and the blood pressure was measured.
(2) In the experiment for measuring the urethral pressure in Example 4, the blood pressure was measured simultaneously. After the urethral pressure and the blood pressure were stabilized, the compound was administered and a change in the blood pressure was measured.

[11] = system: isolated bladder; experiment: Isolated bladder contraction (Example 6); conditions: isolated bladder of SD female rat, cumulative addition
Source text: as §4

[12] = intravenous, anesthetized SD female rat, FIGS. 10 to 14
[13] = final concentration of ramelteon 10^-5 M

T1 sequence (P48039 whole entry): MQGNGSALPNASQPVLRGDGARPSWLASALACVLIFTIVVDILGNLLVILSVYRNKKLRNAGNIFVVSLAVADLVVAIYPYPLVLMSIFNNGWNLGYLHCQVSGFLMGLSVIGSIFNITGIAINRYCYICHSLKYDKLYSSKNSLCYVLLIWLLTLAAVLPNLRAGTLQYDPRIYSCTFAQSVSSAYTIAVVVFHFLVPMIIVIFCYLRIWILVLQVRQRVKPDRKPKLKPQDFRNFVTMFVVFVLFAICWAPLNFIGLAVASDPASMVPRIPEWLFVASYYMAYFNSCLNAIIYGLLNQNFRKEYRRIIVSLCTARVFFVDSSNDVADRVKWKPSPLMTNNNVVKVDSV

COc1ccc(OC)c(C(O)CN)c1 (stereo not shown) [ST-1059]
urethral pressure increasing action ([1]; rat, dose 0.01 mg/kg): 4.9±1.1 mmHg

COc1cc2c([C@@H](C)CNC(C)=O)c[nH]c2cc1Cl [TIK-301, N-[(2R)-2-(6-chloro-5-methoxy-1H-indol-3-yl)propyl]acetamide]
urethra contracting action [2]: contracted the isolated urethra | intracellular Ca^2+ concentration (melatonin receptor activating action) [3]: increased | intracellular Ca^2+ concentration (melatonin receptor activating action) [4]: increased | urethral pressure increasing action [1, 12]: increased the urethral pressure

COc1ccc2cccc(CCNC(C)=O)c2c1 [agomelatine, N-[2-(7-methoxynaphth-1-yl)ethyl]acetamide]
urethra contracting action [2]: contracted the isolated urethra | intracellular Ca^2+ concentration (melatonin receptor activating action) [3]: increased | intracellular Ca^2+ concentration (melatonin receptor activating action) [4]: increased | urethral pressure increasing action [1, 12]: increased the urethral pressure

CC(=O)NCCc1c(Cc2ccccc2)[nH]c2ccccc12 [luzindole, N-[2-[2-(phenylmethyl)-1H-indol-3-yl]ethyl]acetamide]
inhibiting action on isolated urethra contracting action [5, 13]: substantially did not exhibit an inhibiting action | isolated urethra contracting action ([5]; ramelteon 10^-5 M with 10^-5 M luzindole): 78% | isolated urethra contracting action ([5]; ramelteon 10^-5 M with 10^-6 M luzindole): 94% | isolated urethra contracting action ([5]; ramelteon 10^-5 M with 10^-7 M luzindole): 101% | inhibition of isolated urethra contracting action by ramelteon ([5]; treatment with luzindole 10^-7 M to 10^-5 M, FIG. 17): inhibited in a concentration-dependent manner | inhibition of the increase in intracellular Ca^2+ concentration by ramelteon ([6]; MT1 receptor expressing cells, FIG. 15): inhibited | intracellular Ca^2+ concentration increasing action ([6]; MT1 receptor expressing cells, ramelteon 10^-5 M with 10^-5 M luzindole): 94% | intracellular Ca^2+ concentration increasing action ([6]; MT1 receptor expressing cells, ramelteon 10^-5 M with 10^-6 M luzindole): 97% | intracellular Ca^2+ concentration increasing action ([6]; MT1 receptor expressing cells, ramelteon 10^-5 M with 10^-7 M luzindole): 100% | inhibiting action on the MT1 receptor [6, 13]: substantially did not exhibit an inhibiting action | inhibition of the increase in intracellular Ca^2+ concentration by ramelteon ([7]; MT2 receptor expressing cells, FIG. 16): inhibited | intracellular Ca^2+ concentration increasing action ([7]; MT2 receptor expressing cells, ramelteon 10^-5 M with 10^-5 M luzindole): 52% | intracellular Ca^2+ concentration increasing action ([7]; MT2 receptor expressing cells, ramelteon 10^-5 M with 10^-6 M luzindole): 60% | intracellular Ca^2+ concentration increasing action ([7]; MT2 receptor expressing cells, ramelteon 10^-5 M with 10^-7 M luzindole): 62% | inhibiting action, MT2 versus MT1 receptor expressing cells ([7]; comparison of MT2 and MT1 receptor expressing cells): stronger in the MT2 receptor expressing cells than in the MT1 receptor expressing cells

COc1ccc2[nH]cc(CCNC(C)=O)c2c1 [melatonin]
contraction action on the isolated uterus [8]: did not exhibit a contraction action | urethral pressure increasing action [9]: increased the urethral pressure | urethra contracting action [2]: contracted the isolated urethra | effect on blood pressure (mean blood pressure) [10]: did not increase the blood pressure | urethral pressure increasing action [1, 12]: increased the urethral pressure | contraction action on the isolated bladder [11]: did not exhibit a contraction action

CCC(=O)NC[C@@H]1C[C@H]1c1cccc2c1CCO2 [tasimelteon, (−)-(trans)-N-{[2-(2,3-dihydrobenzofuran-4-yl)cyclopropan-l-yl]methyl}propanamide]
urethra contracting action [2]: contracted the isolated urethra | intracellular Ca^2+ concentration (melatonin receptor activating action) [3]: increased | intracellular Ca^2+ concentration (melatonin receptor activating action) [4]: increased | urethral pressure increasing action [1, 12]: increased the urethral pressure
